Measured values reported in patent US20240343692A1 (priority 2021, published 2024).
pEC50, pKi: −log10 of the molar value.

Experiments:
5-HT1A = molecular target: T1, 5-HT1A (Homo sapiens, UniProt P08908); assay: Radioligand binding at 5-HT1A(h) (agonist radioligand), Eurofins Cerep Panlabs; details: human receptor, duplicate, read-out: Percent Inhibition of the Binding of a Specific Radioligand, 5-HT1A; for inhibition at 0.1 µM: % inh. at 100 nM; for inhibition at 1 µM: % inh. at 1.0 μM
T1 sequence (P08908 1-422): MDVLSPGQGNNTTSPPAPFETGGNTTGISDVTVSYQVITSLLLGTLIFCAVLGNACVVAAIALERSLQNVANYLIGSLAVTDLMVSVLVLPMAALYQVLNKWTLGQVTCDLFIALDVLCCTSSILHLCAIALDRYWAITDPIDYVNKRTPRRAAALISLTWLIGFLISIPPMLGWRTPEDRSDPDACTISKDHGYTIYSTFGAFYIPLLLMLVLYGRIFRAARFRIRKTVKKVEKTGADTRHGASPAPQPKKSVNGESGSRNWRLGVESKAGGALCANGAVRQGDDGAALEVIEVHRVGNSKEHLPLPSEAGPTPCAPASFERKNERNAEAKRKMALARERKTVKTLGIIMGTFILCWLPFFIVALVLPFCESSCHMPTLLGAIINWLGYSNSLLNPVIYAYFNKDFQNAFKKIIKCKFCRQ
Description: FIG. 1. Histogram for 5-HT1A(h) (agonist radioligand).

5-HT2A = 5-HT2A (Homo sapiens, UniProt P28223); assay: Radioligand binding at 5-HT2A(h) (agonist radioligand), Eurofins Cerep Panlabs; details: human receptor, duplicate, read-out: Percent Inhibition of the Binding of a Specific Radioligand, 5-HT2A; for inhibition at 0.1 µM: % inh. at 100 nM; for inhibition at 1 µM: % inh. at 1.0 μM
5-HT2A, sequence (P28223 whole entry, looked up): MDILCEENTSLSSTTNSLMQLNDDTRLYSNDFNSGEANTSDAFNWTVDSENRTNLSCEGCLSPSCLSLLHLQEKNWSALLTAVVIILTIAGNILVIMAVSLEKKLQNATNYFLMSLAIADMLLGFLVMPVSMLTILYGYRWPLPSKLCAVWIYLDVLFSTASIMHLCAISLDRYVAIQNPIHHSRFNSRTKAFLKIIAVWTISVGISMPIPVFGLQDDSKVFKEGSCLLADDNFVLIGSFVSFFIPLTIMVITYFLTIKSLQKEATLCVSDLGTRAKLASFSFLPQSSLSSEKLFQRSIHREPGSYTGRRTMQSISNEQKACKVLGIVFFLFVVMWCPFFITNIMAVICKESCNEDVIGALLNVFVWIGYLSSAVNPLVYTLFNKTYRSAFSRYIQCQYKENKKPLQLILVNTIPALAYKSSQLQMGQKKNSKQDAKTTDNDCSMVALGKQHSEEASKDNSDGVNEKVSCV
Description: FIG. 2. Histogram for 5-HT2A(h) (agonist radioligand).

5-HT2B = 5-HT2B (Homo sapiens, UniProt P41595); assay: Radioligand binding at 5-HT2B(h) (agonist radioligand), Eurofins Cerep Panlabs; details: human receptor, duplicate, read-out: Percent Inhibition of the Binding of a Specific Radioligand, 5-HT2B; for inhibition at 0.1 µM: % inh. at 100 nM; for inhibition at 1 µM: % inh. at 1.0 μM
5-HT2B, sequence (P41595 whole entry): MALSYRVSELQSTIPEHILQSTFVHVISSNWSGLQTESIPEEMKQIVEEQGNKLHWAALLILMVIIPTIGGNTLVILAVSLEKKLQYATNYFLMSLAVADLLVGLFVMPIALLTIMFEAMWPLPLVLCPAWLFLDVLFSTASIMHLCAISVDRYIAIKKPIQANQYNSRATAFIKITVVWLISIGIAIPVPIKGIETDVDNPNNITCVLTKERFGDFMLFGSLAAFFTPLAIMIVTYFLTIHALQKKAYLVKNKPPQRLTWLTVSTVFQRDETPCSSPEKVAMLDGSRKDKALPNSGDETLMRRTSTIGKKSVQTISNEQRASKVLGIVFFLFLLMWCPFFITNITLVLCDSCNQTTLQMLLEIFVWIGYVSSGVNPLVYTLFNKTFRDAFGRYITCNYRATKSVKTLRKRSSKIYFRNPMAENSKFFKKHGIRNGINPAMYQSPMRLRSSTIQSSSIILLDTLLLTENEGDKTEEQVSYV
Description: FIG. 3. Histogram for 5-HT2B(h) (agonist radioligand).

5-HT2C = molecular target: T2, 5-HT2C (Homo sapiens, UniProt P28335); assay: Radioligand binding at 5-HT2C(h) (agonist radioligand), Eurofins Cerep Panlabs; details: human receptor, duplicate, read-out: Percent Inhibition of the Binding of a Specific Radioligand, 5-HT2C; for inhibition at 0.1 µM: % inh. at 100 nM; for inhibition at 1 µM: % inh. at 1.0 μM
T2 sequence (P28335 33-458): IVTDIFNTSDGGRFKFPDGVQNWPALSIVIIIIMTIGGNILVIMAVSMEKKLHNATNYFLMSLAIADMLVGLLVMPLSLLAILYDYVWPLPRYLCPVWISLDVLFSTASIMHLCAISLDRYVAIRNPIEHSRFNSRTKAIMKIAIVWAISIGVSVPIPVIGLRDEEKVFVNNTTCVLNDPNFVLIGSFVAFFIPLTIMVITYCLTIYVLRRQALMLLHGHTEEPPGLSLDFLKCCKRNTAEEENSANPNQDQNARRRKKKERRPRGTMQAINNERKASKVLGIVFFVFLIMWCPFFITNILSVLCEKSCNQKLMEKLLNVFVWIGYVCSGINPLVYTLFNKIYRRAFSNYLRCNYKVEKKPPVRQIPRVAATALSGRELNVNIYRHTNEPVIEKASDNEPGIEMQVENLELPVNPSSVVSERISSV
Description: FIG. 4. Histogram for 5-HT2C(h) (agonist radioligand).

Adrenergic α1 = assay: CNS receptor radioligand binding, Adrenergic α1; details: 10 μM; rat receptor data
Dopamine D1 = Dopamine D1 (Homo sapiens, UniProt P21728); assay: CNS receptor radioligand binding, Dopamine D1; details: 10 μM
Dopamine D1, sequence (P21728 whole entry): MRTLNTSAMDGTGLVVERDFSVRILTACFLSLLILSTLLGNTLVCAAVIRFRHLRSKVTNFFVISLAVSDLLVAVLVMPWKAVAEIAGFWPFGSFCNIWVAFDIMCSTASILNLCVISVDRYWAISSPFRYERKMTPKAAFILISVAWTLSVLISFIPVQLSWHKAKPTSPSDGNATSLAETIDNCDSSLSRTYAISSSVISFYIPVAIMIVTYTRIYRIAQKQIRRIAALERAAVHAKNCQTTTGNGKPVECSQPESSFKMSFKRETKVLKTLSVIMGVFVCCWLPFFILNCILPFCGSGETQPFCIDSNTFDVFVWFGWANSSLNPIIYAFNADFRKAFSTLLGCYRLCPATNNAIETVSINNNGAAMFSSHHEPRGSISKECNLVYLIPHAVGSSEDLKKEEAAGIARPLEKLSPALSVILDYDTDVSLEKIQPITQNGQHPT

Dopamine D2L = Dopamine D2L (Homo sapiens, UniProt P14416); assay: CNS receptor radioligand binding, Dopamine D2L; details: 10 μM
Dopamine D2L, sequence (P14416 whole entry): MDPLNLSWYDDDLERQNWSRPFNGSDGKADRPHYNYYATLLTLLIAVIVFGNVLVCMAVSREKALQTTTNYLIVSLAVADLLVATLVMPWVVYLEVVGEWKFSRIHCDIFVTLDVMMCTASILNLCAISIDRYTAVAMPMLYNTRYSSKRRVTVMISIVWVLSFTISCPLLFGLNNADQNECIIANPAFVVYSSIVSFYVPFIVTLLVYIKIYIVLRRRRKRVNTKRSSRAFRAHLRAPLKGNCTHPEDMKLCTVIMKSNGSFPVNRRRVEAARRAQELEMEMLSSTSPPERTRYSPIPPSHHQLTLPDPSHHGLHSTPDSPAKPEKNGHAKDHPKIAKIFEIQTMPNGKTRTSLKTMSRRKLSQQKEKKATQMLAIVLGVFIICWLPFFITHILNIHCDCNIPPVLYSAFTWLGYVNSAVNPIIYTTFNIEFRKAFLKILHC

Dopamine D3 = Dopamine D3 (Homo sapiens, UniProt P35462); assay: CNS receptor radioligand binding, Dopamine D3
Dopamine D3, sequence (P35462 whole entry): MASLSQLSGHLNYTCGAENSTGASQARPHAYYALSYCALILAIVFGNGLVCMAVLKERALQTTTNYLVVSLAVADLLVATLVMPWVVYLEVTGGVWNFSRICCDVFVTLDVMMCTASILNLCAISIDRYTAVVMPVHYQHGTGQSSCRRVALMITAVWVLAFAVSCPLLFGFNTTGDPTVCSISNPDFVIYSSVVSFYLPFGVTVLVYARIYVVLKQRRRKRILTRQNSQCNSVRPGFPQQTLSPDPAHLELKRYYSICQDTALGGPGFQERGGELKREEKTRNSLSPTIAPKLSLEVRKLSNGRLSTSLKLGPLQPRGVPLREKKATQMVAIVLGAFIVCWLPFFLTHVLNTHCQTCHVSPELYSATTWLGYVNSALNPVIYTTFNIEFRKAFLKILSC

GABAA = assay: CNS receptor radioligand binding, GABAA; details: 10 μM; rat receptor data
Histamine H1 = Histamine H1 (Homo sapiens, UniProt P35367); assay: CNS receptor radioligand binding, Histamine H1 (human); details: 10 μM
Histamine H1, sequence (P35367 whole entry): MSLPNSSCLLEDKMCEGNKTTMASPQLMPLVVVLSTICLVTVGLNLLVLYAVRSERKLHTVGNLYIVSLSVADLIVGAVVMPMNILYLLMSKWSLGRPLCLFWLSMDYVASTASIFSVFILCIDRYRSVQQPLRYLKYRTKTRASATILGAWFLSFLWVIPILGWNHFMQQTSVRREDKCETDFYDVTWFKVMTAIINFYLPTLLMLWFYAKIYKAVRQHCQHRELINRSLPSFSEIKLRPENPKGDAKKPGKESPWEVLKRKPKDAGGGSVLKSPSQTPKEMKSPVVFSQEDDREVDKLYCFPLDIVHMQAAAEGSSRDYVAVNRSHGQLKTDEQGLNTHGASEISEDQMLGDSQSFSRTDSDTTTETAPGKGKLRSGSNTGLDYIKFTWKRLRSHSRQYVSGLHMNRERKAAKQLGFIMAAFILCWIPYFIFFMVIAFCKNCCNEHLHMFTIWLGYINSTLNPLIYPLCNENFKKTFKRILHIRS

Muscarinic M2 = molecular target: T3, Muscarinic M2 (Homo sapiens, UniProt P08172); assay: CNS receptor radioligand binding, Muscarinic M2; details: 10 μM
T3 sequence (P08172 1-466): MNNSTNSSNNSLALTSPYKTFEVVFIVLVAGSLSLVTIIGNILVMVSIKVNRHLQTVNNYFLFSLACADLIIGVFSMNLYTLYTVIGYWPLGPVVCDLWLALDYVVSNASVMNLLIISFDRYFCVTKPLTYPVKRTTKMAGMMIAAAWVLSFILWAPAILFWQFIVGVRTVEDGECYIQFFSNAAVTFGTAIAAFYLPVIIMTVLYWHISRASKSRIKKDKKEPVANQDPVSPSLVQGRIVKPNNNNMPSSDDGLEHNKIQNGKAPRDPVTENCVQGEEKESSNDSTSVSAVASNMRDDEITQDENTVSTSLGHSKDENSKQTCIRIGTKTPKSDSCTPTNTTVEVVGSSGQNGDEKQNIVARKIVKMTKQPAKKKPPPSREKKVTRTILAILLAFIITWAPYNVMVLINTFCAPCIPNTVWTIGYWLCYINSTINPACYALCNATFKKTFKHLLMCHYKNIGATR

Muscarinic M5 = molecular target: T4, Muscarinic M5 (Homo sapiens, UniProt P08912); assay: CNS receptor radioligand binding, Muscarinic M5; details: 10 μM
T4 sequence (P08912 1-532): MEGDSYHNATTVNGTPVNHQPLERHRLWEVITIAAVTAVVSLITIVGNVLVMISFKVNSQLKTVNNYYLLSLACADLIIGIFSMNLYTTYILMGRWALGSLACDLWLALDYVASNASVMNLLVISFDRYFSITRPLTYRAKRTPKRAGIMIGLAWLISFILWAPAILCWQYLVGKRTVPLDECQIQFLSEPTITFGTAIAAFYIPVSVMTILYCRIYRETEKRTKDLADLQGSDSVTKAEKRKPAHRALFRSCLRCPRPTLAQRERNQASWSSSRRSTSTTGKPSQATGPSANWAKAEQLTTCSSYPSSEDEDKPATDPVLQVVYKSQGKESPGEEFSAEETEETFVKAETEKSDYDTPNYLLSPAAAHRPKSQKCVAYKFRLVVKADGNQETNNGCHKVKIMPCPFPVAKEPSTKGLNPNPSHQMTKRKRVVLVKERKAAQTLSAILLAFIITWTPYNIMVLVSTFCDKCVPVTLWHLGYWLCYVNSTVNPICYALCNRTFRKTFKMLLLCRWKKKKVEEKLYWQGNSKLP

[1] = molecular target: Nicotinic Acetylcholine α4β2 (Homo sapiens, UniProt P17787+P43681); assay: CNS receptor radioligand binding, Nicotinic Acetylcholine α4β2; details: 10 μM
Nicotinic Acetylcholine α4β2, sequence (P43681 29-627 limits assumed): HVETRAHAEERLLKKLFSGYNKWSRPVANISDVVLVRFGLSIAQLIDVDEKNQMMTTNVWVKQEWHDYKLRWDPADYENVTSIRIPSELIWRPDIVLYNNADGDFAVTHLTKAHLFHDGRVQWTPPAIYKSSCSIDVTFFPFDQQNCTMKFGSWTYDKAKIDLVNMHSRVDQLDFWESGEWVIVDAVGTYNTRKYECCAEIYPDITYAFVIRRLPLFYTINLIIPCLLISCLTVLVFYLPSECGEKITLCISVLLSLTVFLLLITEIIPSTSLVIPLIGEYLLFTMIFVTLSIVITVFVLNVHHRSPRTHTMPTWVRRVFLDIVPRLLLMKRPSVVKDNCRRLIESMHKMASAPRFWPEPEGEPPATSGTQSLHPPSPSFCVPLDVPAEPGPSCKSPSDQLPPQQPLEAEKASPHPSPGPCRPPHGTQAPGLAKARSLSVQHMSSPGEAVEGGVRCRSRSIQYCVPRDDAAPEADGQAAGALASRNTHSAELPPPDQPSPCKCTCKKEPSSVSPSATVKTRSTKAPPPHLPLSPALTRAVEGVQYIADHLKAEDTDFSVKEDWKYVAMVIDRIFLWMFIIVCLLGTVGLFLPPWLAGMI
Nicotinic Acetylcholine α4β2, sequence (P17787 26-502): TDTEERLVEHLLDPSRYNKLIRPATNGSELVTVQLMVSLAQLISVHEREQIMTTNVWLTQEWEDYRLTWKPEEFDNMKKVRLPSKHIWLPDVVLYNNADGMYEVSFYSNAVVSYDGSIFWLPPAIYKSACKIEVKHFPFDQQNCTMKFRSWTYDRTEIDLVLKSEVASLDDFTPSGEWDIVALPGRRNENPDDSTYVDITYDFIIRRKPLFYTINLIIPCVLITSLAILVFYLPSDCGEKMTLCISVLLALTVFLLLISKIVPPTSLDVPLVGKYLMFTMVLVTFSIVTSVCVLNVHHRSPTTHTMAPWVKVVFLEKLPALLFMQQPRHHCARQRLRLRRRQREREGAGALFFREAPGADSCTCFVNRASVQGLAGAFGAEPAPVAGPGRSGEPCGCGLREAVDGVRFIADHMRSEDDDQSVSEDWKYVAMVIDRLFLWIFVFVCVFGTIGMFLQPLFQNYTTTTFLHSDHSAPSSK

Opiate κ = Opiate κ (Homo sapiens, UniProt P41145); assay: CNS receptor radioligand binding, Opiate κ; details: 10 μM
Opiate κ, sequence (P41145 whole entry): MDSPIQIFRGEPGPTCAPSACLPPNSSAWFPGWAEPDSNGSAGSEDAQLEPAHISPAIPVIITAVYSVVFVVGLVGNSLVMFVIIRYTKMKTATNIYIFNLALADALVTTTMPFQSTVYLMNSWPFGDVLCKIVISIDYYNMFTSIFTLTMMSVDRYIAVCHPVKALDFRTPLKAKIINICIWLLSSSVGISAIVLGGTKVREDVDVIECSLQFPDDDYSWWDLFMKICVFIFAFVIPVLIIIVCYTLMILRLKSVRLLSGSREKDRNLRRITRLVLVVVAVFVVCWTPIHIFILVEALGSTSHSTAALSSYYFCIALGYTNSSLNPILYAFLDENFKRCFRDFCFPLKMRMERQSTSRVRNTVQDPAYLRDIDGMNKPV

Orexin OX1 = molecular target: T5, Orexin OX1 (Homo sapiens, UniProt O43613); assay: CNS receptor radioligand binding, Orexin OX1; details: 10 μM
T5 sequence (O43613 1-425): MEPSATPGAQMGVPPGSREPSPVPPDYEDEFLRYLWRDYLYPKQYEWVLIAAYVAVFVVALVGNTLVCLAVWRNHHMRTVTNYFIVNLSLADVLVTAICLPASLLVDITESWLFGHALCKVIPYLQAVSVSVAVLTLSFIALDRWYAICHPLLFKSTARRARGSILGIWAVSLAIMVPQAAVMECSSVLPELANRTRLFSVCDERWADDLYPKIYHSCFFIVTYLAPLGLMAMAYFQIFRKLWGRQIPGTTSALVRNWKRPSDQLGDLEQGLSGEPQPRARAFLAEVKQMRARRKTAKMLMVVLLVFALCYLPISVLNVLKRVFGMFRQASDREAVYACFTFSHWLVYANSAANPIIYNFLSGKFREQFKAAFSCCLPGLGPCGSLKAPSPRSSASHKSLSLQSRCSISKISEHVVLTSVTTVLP

Serotonin 5-HT1A [2] = molecular target: T6, Serotonin 5-HT1A (Homo sapiens, UniProt P08908); assay: CNS receptor radioligand binding, Serotonin 5-HT1A
T6 sequence (P08908 1-422): T1 sequence (P08908 1-422)

Serotonin 5-HT2A [3] = molecular target: T7, Serotonin 5-HT2A (Homo sapiens, UniProt P28223); assay: CNS receptor radioligand binding, Serotonin 5-HT2A
T7 sequence (P28223 whole entry, looked up): as the sequence (P28223 whole entry, looked up) above

Serotonin 5-HT1A [4] = molecular target: T6, Serotonin 5-HT1A; assay: Receptor activation potency, Serotonin 5-HT1A; format: biochemical; details: 5-point concentration response curves, duplicate
Serotonin 5-HT2A [5] = molecular target: T7, Serotonin 5-HT2A; assay: Receptor activation potency, Serotonin 5-HT2A; format: biochemical; details: 5-point concentration response curves, duplicate
Serotonin 5-HT2B = Serotonin 5-HT2B (Homo sapiens, UniProt P41595); assay: Receptor activation potency, Serotonin 5-HT2B; format: biochemical; details: 5-point concentration response curves, duplicate
Serotonin 5-HT2B, sequence (P41595 whole entry): as the sequence (P41595 whole entry) above

Serotonin 5-HT2C = molecular target: T8, Serotonin 5-HT2C (Homo sapiens, UniProt P28335); assay: Receptor activation potency, Serotonin 5-HT2C; format: biochemical; details: 5-point concentration response curves, duplicate
T8 sequence (P28335 33-458): T2 sequence (P28335 33-458)

Sigma-1 = Sigma-1 (Homo sapiens, UniProt Q99720); assay: Inhibition constant, Sigma-1; format: binding; details: human receptor; 5-point concentration response curves; duplicate; read-out: inhibition constants Ki, Sigma-1
Sigma-1, sequence (Q99720 whole entry): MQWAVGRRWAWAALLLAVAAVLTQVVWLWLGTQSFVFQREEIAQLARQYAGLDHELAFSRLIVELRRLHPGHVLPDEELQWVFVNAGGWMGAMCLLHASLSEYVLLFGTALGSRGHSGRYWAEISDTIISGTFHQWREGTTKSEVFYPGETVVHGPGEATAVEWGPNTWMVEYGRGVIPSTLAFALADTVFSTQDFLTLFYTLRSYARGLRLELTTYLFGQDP

Compound: CN1C[C@H](CO)C=C2c3cccc4[nH]cc(c34)C[C@H]21 [(+)-1, (+)-lysergol]
- inhibition at 0.1 µM (5-HT1A): 94%
- inhibition at 1 µM (5-HT1A): 99%
- inhibition at 0.1 µM (5-HT2A): 96%
- inhibition at 1 µM (5-HT2A): 97%
- inhibition at 0.1 µM (5-HT2B): 96%
- inhibition at 1 µM (5-HT2B): 99%
- inhibition at 0.1 µM (5-HT2C): 97%
- inhibition at 1 µM (5-HT2C): 99%

Compound: CN1C[C@@H](CO)C=C2c3cccc4[nH]cc(c34)C[C@@H]21 [(−)-1, (−)-lysergol]
- inhibition at 0.1 µM (5-HT1A): 27%
- inhibition at 1 µM (5-HT1A): 67%
- inhibition at 0.1 µM (5-HT2A): 12%
- inhibition at 1 µM (5-HT2A): 62%
- inhibition at 0.1 µM (5-HT2B): 34%
- inhibition at 1 µM (5-HT2B): 87%
- inhibition at 0.1 µM (5-HT2C): 41%
- inhibition at 1 µM (5-HT2C): 86%

Compound: (−)-Cycloclavine
- Percent Inhibition of Specific Binding of a Radioligand Standard, Adrenergic α1 (Adrenergic α1): 59 % inh
- Percent Inhibition of Specific Binding of a Radioligand Standard, Dopamine D1 (Dopamine D1): 30 % inh
- Percent Inhibition of Specific Binding of a Radioligand Standard, Dopamine D2L (Dopamine D2L): 14 % inh
- Percent Inhibition of Specific Binding of a Radioligand Standard, Dopamine D3 (Dopamine D3; 1 μM): 32 % inh
- Percent Inhibition of Specific Binding of a Radioligand Standard, Dopamine D3 (Dopamine D3; 10 μM): 64 % inh
- Percent Inhibition of Specific Binding of a Radioligand Standard, GABAA (GABAA): 0 % inh
- Percent Inhibition of Specific Binding of a Radioligand Standard, Histamine H1 (Histamine H1): 27 % inh
- Percent Inhibition of Specific Binding of a Radioligand Standard, Muscarinic M2 (Muscarinic M2): 0 % inh
- Percent Inhibition of Specific Binding of a Radioligand Standard, Muscarinic M5 (Muscarinic M5): 15 % inh
- Percent Inhibition of Specific Binding of a Radioligand Standard, Nicotinic Acetylcholine α4β2 [1]: 11 % inh
- Percent Inhibition of Specific Binding of a Radioligand Standard, Opiate κ (Opiate κ): 75 % inh
- Percent Inhibition of Specific Binding of a Radioligand Standard, Orexin OX1 (Orexin OX1): 6 % inh
- Percent Inhibition of Specific Binding of a Radioligand Standard, Serotonin 5-HT1A (Serotonin 5-HT1A [2]; 1 μM): 73 % inh
- Percent Inhibition of Specific Binding of a Radioligand Standard, Serotonin 5-HT1A (Serotonin 5-HT1A [2]; 10 μM): 91 % inh
- Percent Inhibition of Specific Binding of a Radioligand Standard, Serotonin 5-HT2A (Serotonin 5-HT2A [3]; 1 μM): 51 % inh
- Percent Inhibition of Specific Binding of a Radioligand Standard, Serotonin 5-HT2A (Serotonin 5-HT2A [3]; 10 μM): 89 % inh
- pEC50 (Serotonin 5-HT1A [4]): ~5.30
- pEC50 (Serotonin 5-HT2A [5]): < 4.30
- pEC50 (Serotonin 5-HT2B): < 4.70
- pEC50 (Serotonin 5-HT2C): 5.49
- pKi (Sigma-1): 5.08
